Data as given in the kinase profiling compilation of Christmann-Franck et al. (2016).

Experiments:
Experiment in all cases: radiometric filter-binding kinase assay, Kinase HotSpot
Conditions in all cases: compound 0.5 µM; ATP 10 µM
[1] = target: PRKG2 (human) (UniProt Q13237)
[2] = target: MAP3K9 (human) (UniProt P80192)
[3] = target: PRKCZ (human) (UniProt Q05513)
[4] = target: ACVR1 (human) (UniProt Q04771)
[5] = target: MAP3K5 (human) (UniProt Q99683)
[6] = target: CDK6 CCND1 (human) (UniProt Q00534+P24385)
Chain of CDK6 CCND1 (human) (P24385 whole entry, looked up): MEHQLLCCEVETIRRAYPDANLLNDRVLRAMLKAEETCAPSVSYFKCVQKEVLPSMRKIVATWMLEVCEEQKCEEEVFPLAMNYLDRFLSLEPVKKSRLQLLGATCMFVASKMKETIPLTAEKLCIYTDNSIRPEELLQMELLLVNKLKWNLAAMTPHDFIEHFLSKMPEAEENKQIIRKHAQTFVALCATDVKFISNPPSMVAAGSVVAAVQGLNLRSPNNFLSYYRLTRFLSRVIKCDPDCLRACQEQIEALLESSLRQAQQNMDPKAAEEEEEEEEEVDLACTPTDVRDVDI
Chain of CDK6 CCND1 (human) (Q00534 whole entry, looked up): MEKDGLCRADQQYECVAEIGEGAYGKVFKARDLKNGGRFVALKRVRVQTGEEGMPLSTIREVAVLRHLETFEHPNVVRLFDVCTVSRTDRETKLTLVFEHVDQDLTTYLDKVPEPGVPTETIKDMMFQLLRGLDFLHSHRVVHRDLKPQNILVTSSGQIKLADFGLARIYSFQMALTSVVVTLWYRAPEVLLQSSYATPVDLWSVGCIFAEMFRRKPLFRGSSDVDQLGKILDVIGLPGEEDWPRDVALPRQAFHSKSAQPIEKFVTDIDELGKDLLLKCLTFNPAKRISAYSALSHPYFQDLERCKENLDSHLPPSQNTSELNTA

[7] = target: CDK9 CCNK (human) (UniProt O75909+P50750)
[8] = target: MAPKAPK3 (human) (UniProt Q16644)
Chain of MAPKAPK3 (human) (Q16644 whole entry, looked up): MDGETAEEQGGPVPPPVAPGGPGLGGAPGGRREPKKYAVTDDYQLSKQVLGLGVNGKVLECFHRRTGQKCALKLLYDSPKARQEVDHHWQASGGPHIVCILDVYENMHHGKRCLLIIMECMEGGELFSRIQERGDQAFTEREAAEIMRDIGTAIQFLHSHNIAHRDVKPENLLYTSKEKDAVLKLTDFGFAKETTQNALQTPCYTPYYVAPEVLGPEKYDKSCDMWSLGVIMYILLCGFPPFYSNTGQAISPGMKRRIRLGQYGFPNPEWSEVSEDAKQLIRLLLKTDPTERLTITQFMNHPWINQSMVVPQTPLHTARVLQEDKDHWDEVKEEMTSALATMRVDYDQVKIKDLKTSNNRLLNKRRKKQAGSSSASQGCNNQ

[9] = target: NEK6 (human) (UniProt Q9HC98)
[10] = target: NEK7 (human) (UniProt Q8TDX7)
[11] = target: CDK2 CCNE1 (human) (UniProt P24941+P24864)
[12] = target: DYRK4 (human) (UniProt Q9NR20)
[13] = target: ERBB4 (human) (UniProt Q15303)
Chain of ERBB4 (human) (Q15303 whole entry, looked up): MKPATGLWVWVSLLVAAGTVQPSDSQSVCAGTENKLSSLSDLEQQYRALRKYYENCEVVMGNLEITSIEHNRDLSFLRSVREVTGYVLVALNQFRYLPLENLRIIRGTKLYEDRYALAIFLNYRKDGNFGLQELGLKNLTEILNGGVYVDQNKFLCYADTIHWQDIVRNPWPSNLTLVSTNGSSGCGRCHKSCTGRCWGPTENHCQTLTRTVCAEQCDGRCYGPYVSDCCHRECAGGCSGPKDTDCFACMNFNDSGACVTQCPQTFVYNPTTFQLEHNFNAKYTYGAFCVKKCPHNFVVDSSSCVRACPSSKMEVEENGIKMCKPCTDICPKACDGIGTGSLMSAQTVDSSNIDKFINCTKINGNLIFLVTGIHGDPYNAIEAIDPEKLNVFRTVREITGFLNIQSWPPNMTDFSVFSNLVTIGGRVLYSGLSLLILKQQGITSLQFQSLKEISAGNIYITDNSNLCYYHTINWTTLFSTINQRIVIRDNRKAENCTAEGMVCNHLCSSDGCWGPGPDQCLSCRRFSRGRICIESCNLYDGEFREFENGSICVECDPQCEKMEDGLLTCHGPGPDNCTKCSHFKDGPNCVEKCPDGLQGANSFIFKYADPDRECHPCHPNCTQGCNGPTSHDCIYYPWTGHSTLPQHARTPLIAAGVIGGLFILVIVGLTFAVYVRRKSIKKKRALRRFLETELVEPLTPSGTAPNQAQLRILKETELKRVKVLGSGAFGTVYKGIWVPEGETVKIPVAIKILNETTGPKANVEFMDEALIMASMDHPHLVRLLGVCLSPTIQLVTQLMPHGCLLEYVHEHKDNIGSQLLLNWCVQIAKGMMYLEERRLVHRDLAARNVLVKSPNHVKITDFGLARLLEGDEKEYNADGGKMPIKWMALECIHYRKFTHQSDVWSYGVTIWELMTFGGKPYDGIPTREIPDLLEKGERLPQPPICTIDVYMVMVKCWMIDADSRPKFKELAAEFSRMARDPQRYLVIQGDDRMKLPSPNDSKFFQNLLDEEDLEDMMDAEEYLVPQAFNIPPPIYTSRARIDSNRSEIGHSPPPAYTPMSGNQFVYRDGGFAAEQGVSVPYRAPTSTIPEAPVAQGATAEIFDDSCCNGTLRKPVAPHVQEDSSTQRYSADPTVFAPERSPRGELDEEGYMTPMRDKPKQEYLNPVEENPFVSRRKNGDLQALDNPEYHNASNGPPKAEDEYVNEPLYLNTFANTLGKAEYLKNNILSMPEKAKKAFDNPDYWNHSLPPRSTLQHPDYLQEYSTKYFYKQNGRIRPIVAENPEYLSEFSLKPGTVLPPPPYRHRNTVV

[14] = target: TGFBR1 (human) (UniProt P36897)
Chain of TGFBR1 (human) (P36897 whole entry, looked up): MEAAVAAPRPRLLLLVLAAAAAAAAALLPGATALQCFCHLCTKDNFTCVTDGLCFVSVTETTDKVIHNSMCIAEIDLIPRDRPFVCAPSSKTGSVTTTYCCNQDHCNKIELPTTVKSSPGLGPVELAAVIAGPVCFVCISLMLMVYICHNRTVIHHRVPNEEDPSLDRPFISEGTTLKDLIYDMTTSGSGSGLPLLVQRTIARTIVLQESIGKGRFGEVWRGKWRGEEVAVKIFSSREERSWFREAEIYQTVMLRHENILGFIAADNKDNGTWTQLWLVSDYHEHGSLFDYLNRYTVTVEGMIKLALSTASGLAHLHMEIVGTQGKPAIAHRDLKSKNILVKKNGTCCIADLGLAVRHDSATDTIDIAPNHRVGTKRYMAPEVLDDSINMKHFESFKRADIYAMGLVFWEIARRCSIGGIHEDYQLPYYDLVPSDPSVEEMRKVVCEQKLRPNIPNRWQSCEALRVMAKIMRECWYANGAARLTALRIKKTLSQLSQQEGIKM

[15] = target: CAMK2G (human) (UniProt Q13555)
[16] = target: WNK3 (human) (UniProt Q9BYP7)
[17] = target: FGFR4 (human) (UniProt P22455)
[18] = target: DYRK1B (human) (UniProt Q9Y463)
[19] = target: PDGFRA (human) (UniProt P16234)
[20] = target: TBK1 (human) (UniProt Q9UHD2)
[21] = target: CSF1R (human) (UniProt P07333)
[22] = target: NUAK1 (human) (UniProt O60285)
[23] = target: PLK1 (human) (UniProt P53350)
[24] = target: ADRBK2 (human) (UniProt P35626)
[25] = target: CHEK2 (human) (UniProt O96017)
[26] = target: PRKCA (human) (UniProt P17252)
[27] = tested on: PRKCQ (human), Q04759 [P330L]
[28] = target: NEK3 (human) (UniProt P51956)
Chain of NEK3 (human) (P51956 whole entry, looked up): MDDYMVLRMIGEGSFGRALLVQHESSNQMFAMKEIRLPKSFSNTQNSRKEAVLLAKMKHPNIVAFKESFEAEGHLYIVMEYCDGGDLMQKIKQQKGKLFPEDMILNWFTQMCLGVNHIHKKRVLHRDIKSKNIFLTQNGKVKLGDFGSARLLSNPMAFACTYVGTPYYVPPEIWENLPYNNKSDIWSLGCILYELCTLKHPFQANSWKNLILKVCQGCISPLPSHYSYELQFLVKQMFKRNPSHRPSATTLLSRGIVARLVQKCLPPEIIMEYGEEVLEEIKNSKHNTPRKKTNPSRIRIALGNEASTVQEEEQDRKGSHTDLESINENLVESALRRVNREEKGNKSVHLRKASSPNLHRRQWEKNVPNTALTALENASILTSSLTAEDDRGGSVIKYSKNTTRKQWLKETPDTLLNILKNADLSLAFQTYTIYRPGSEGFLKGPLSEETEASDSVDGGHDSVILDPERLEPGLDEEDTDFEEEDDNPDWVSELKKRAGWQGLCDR

[29] = target: CDK3 CCNE1 (human) (UniProt Q00526+P24864)
[30] = target: NEK4 (human) (UniProt P51957)
[31] = target: PHKG2 (human) (UniProt P15735)
[32] = target: PTK6 (human) (UniProt Q13882)
[33] = target: MAP4K2 (human) (UniProt Q12851)
[34] = target: TTK (human) (UniProt P33981)
[35] = target: GSK3B (human) (UniProt P49841)
[36] = target: GRK7 (human) (UniProt Q8WTQ7)
[37] = target: ADRBK1 (human) (UniProt P25098)
[38] = target: LRRK2 (human) (UniProt Q5S007)
[39] = target: EPHA8 (human) (UniProt P29322)
Chain of EPHA8 (human) (P29322 whole entry, looked up): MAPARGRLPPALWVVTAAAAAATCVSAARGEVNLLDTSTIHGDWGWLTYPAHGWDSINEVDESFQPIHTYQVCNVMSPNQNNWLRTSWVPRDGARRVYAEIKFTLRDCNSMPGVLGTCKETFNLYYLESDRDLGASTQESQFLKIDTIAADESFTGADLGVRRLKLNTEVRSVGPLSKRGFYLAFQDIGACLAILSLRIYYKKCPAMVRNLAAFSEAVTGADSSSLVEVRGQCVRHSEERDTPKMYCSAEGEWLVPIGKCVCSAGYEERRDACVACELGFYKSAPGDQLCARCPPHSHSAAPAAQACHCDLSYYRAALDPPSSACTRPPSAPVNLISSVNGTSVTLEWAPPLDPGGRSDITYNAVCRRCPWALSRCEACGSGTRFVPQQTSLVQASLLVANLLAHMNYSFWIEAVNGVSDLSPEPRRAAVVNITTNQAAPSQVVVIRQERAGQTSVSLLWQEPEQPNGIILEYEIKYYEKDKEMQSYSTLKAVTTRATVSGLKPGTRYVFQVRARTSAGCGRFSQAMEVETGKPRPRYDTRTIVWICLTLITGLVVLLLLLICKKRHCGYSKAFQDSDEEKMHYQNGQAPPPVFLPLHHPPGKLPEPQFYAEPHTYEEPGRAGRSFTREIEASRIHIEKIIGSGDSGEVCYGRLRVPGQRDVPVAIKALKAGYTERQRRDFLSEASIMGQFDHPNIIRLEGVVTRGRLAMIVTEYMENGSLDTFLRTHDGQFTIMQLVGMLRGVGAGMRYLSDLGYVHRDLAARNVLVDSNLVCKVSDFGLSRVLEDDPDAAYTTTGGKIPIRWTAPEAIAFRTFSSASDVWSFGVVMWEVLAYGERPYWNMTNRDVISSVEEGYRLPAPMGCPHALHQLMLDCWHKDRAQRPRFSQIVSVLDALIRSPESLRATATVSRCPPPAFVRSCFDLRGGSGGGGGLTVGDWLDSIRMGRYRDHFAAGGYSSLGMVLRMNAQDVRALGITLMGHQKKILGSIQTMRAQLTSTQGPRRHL

[40] = target: SRMS (human) (UniProt Q9H3Y6)
[41] = target: MAPK10 (human) (UniProt P53779)
[42] = target: PRKCB1 (human) (UniProt P05771)

Chain of PRKCZ (human) (Q05513 whole entry, looked up): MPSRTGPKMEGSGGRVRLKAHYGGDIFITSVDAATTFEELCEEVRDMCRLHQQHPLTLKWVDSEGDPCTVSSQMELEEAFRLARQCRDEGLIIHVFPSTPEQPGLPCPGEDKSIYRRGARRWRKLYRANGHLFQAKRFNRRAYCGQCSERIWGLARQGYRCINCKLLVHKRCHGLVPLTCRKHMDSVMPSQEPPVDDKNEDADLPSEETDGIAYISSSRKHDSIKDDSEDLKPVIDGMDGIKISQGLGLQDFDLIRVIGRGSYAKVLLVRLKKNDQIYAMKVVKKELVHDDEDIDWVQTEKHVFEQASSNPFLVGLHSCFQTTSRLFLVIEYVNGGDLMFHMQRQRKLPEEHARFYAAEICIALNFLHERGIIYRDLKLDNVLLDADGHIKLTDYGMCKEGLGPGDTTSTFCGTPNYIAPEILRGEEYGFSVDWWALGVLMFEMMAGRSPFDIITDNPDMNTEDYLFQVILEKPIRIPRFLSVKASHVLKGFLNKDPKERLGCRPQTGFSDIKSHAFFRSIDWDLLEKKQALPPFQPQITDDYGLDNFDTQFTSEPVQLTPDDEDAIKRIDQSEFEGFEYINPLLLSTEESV

`CN(C)S(=O)(=O)c1ccc2c(c1)/C(=C/c1cc3c([nH]1)CCCC3)C(=O)N2` was tested, and the residual activity [1] was 95.9%, the residual activity [2] was 74.6% and the residual activity [3] was 98.9%. For the same compound, the residual activity [4] was 98.6%, the residual activity [5] was 106% and the residual activity [6] was 92.5%. The residual activity [7] was 96.9%, the residual activity [8] was 100% and the residual activity [9] was 90.7%. For the same compound, the residual activity [10] was 103%, the residual activity [11] was 85.5% and the residual activity [12] was 98.2%. For the same compound, the residual activity [13] was 106%, the residual activity [14] was 95.9% and the residual activity [15] was 98.9%. The residual activity [16] was 96.5%, the residual activity [17] was 92.9% and the residual activity [18] was 93.6%. For the same compound, the residual activity [19] was 93.7%, the residual activity [20] was 80.6% and the residual activity [21] was 37.2%. It also gave a residual activity [22] of 10.9%, a residual activity [23] of 101% and a residual activity [24] of 97%. It also gave a residual activity [25] of 46.1%, a residual activity [26] of 94.9% and a residual activity [27] of 112%. The residual activity [28] was 98.2%, the residual activity [29] was 96.9% and the residual activity [30] was 99.9%. It also gave a residual activity [31] of 78.8%, a residual activity [32] of 56.3% and a residual activity [33] of 20.8%. The residual activity [34] was 89.7%, the residual activity [35] was 95.6% and the residual activity [36] was 82.3%. For the same compound, the residual activity [37] was 95%, the residual activity [38] was 1.78% and the residual activity [39] was 100%. The residual activity [40] was 104%, the residual activity [41] was 105% and the residual activity [42] was 106%.
For `COc1ccc(C(=O)Nc2sc3c(c2C(N)=O)CCCC3)cc1OC`, the residual activity [1] was 104%, the residual activity [2] was 101% and the residual activity [3] was 89.3%. For the same compound, the residual activity [4] was 159%, the residual activity [5] was 94.8% and the residual activity [6] was 95.1%. For the same compound, the residual activity [7] was 85.7%, the residual activity [8] was 97.2% and the residual activity [9] was 92.7%. It also gave a residual activity [10] of 99%, a residual activity [11] of 94.6% and a residual activity [12] of 98.5%. It also gave a residual activity [13] of 97.2%, a residual activity [14] of 95.8% and a residual activity [15] of 95.8%. For the same compound, the residual activity [16] was 96.4%, the residual activity [17] was 105% and the residual activity [18] was 104%. The residual activity [19] was 96.4%, the residual activity [20] was 102% and the residual activity [21] was 90.2%. It also gave a residual activity [22] of 81.8%, a residual activity [23] of 99% and a residual activity [24] of 103%. It also gave a residual activity [25] of 93%, a residual activity [26] of 96.6% and a residual activity [27] of 97.5%. For the same compound, the residual activity [28] was 95.8%, the residual activity [29] was 104% and the residual activity [30] was 104%. It also gave a residual activity [31] of 106%, a residual activity [32] of 97.8% and a residual activity [33] of 106%. The residual activity [34] was 95.6%, the residual activity [35] was 97.7% and the residual activity [36] was 95.5%. It also gave a residual activity [37] of 96.8%, a residual activity [38] of 87.4% and a residual activity [39] of 114%. For the same compound, the residual activity [40] was 91%, the residual activity [41] was 84.5% and the residual activity [42] was 91.8%.
